# Assay results from patent US10925858B2, “S-nitrosoglutathione (GSNO) and GSNO reductase inhibitors for use in therapy” (MUSC FOUNDATION FOR RESEARCH DEVELOPMENT, priority 2017, dated 2021).
# Legend:
# IFN-γ, IL-17 = experiment: IFN-γ and IL-17 in spinal cords of passively immunized EAE mice, ELISA; type: in vivo, SJL mice; settings: T cells from GSNO treated vs untreated EAE mice
# Method: At the peak of EAE disease, the mice were sacrificed and CD4+ T cells were purified from draining lymph nodes (DLN) and spleens by CD4+ T cell isolation kit (Miltenyi, Auburn. Calif.). The purified T cells (2.5×10^6 cells/ml) were cultured in 96-well round-bottom microculture plates (Falcon Labware, Oxnard, Calif.) in RPMI-complete media containing RPMI 1640 (Life Technologies, Gaithersburg, Md.), 10% FBS, and 100 μg/ml streptomycin and penicillin (Atlanta Biologicals Norcross, Ga.), 1 mM glutamine, 1 mM nonessential amino acids, and 50 μM 2-mercaptoethanol (Sigma-Aldrich). For skewing of different CD4+ T cell subsets and their expansion, the isolated CD4+ T cells were stimulated with PLP139-151 (5 μg/ml) with IL-2 (10 ng/ml) for TH0, IL-2 (10 ng/ml), rhIL-12p35 (10 ng/ml), and anti-IL-4 (1 μg/ml) for TH1, or recombinant mouse IL-12/23p40 homodimer (10 ng/ml), anti-IFN-γ 1 (μg/ml), anti-IL-4 (1 μg/ml) for TO 17. All cytokines and antibodies were purchased from BD Biosciences (San Diego, Calif.). […]
# (20-30×10^6 T cells in 300 μl RPMI media per mouse) were injected to naive SJL female mice (8-10 week old) via intraperitoneal route. […] Clinical EAE disease was measured as describe above.
# cerebral microvessels = experiment: Transmission electron microscopy, ultrastructure of microvessels of diabetic mice; type: in vivo; settings: cortex and hippocampus, GSNO supplemented diabetic animals, 8 weeks
# Method: Male laca mice weighing between 28-32 g were procured from the Central Animal House, Panjab University, Chandigarh. The animals were acclimatized and were fed with standard pellet diet and water ad libitum. The experimental protocols were approved by the Institutional Ethics Committee and were conducted according to Indian National Science Academy (INSA) guidelines for the use and care of experimental animals. The animals were divided into four groups: (i) Control animals received phosphate buffered saline (PBS) throughout the study; (ii) Control+GSNO animals were administered with GSNO 100 μg/kg body weight orally, dissolved in PBS after every 24 h for 8 weeks; (iii) Diabetic animals were injected with STZ at a dose of 40 mg/kg body weight intraperitoneally for 5 days dissolved in 0.1 mol/L citrate buffer, pH 4.5 and Diabetic+GSNO mice were administered GSNO 100 μg/kg body weight orally dissolved in PBS after every 24 h for 8 weeks after the induction of diabetes. Animals were assessed weekly for development of diabetic encephalopathy in terms of memory deficits. All experimental procedures were done on mice at the end of study. Transmission electron microscopy was carried out by the method described by Gao et al., (2005). […]
smiles,measurement,setting,value
"N[C@@H](CCC(=O)N[C@@H](CSN=O)C(=O)NCC(=O)O)C(=O)O [GSNO, S-nitrosoglutathione]",IFN-γ in the spinal cords of passively immunized mice,"IFN-γ, IL-17",comparable levels
same,IL-17 in the spinal cords of passively immunized mice,"IFN-γ, IL-17",significantly lower levels
same,ultrastructure of microvessels,cerebral microvessels,improved the ultrastructure of the damaged microvessels
